Measurements: patent US20240166643A1, “IMIDAZO[1,2-A]PYRIDINE COMPOUNDS AND THEIR USE IN THERAPY” (Imperial College Innovations Limited, priority 2020, published 2024)
Read-outs that look alike come from different tables or passages of the source. Marks after values point to notes of the source that are not given here.

Tests used:
[1] = biological target: T1, Plasmodium vivax (Pv) NMT (Plasmodium vivax (strain Salvador I), UniProt A5K1A2)
[2] = biological target: T2, Human NMT1 (HsNMT1) (Homo sapiens, UniProt P30419)
T2 sequence (P30419 whole entry, looked up): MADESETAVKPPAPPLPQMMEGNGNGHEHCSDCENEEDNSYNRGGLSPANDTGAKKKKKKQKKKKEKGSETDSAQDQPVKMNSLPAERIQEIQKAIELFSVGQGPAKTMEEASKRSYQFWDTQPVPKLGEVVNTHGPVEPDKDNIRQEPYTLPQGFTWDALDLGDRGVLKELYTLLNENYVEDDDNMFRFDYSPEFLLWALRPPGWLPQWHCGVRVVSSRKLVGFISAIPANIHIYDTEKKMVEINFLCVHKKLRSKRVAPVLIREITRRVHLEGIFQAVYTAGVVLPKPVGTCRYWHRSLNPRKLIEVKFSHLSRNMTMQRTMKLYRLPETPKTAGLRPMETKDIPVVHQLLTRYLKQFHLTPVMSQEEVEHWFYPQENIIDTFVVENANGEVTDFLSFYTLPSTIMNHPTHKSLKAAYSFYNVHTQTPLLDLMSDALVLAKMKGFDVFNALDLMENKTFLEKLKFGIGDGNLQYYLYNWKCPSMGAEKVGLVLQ

[3] = biological target: T1, Plasmodium vivax (Pv) NMT; experiment: biochemical
[4] = in vitro; details: male, Sprague-Dawley, rat, pooled cryopreserved rat hepatocytes, pH 7.4
Description: Assay (e): Rat Hepatocyte Half Life
Certain example compound of the present invention were tested for metabolic stability in rat metabolic assays using hepatocytes derived from pooled male Sprague-Dawley rats.
Frozen pooled rat hepatocytes obtained from LifeTechnologies were thawed and purified according to the manufacturer's instructions. The test compound (4 mM) in DMSO was diluted with acetonitrile to provide a 100 μM sub-stock then further diluted with pH 7.4 Krebs-Henseleit buffer (supplemented with CaCl2, NaHCO3, HEPES, fructose and glycine) to provide a 2 μM working solution. 25 μL of working solution was incubated at 37° C., treated with 25 μL of rat hepatocyte suspension (containing 1×10^6 cells/mL) and incubated at 37° C. with 5% CO2 level at 95% relative humidity. Wells were incubated for an appropriate time (0, 15, 30, 45, 60 and 75 min) then quenched with 250 μL of acetonitrile containing reference standards diltiazem, 7-ethoxycoumarin and propranolol). The plates were shaken, sonicated for 5 min then cooled to 4° C. until all sampling was complete. All plates were centrifuged at 4000 rpm for 20 min to pellet the debris. 110 μL supernatant was diluted 110 μL water and quantitated using LC-MS/MS.
A linear regression curve was fitted to a plot of natural logarithm (In) of AUC against time. The T-half (min)=0.693/slope

[5] = test system: Plasmodium falciparum 3D7; experiment: SYBR Green assay, Plasmodium falciparum strain 3D7; type: cell-based; details: P. falciparum strain 3D7, 96 h incubation, read-out: Pf EC50 strain 3D7
Description: Assay (g): SYBR Green Assay
EC50 values for Plasmodium falciparum (Pf) NMT strain 3D7 or NF54 were measured for certain compounds of the invention using an assay utilising SYBR Green dye. The assay for NMT strain 3D7 was carried out as follows:
Synchronous Plasmodium falciparum 3D7 late stage trophozoites at 33-36 h were used. Final parasitemia and haematocrit were between 0.1-0.2% and 2% respectively. Red blood cells used for the assay were centrifuged to remove the buffy coat and washed twice in Roswell Park Memorial Institute (RPMI) Media 1640 so that no white blood cells were present. The culture medium contained RPMI 1640 with 5 g/L Albumax, 0.025 g/L gentamycin and 0.292 g/L L-glutamine.
Sterile 96 well black tissue culture plates (Costar) were used routinely for every assay. […] Chloroquine was used as a standard with ten times reduced concentrations range as above. Two sets of control were used in duplicate wells, one set with no added compound of the invention or standard (positive control) and one with uninfected red blood cells (negative control).
The plates were incubated at 37° C. for 48 h in a gas chamber flushed with 5% CO2, 5% O2 and 90% N2. After 48 h supernatants were taken out from each well and replaced with fresh drug and incubated for a further 48 h in the same manner. At the end of the 96 h incubation, 25 μL of SYBR Green I dye (SYBR Green I nucleic acid gel stain 10,000×, in DMSO from Invitrogen) in lysis buffer (1 μL dye to 1 mL lysis buffer) was added to each well and stored overnight at −20° C. The lysis buffer contained Tris (20 mM, pH 8.0), EDTA (2 mM), Saponin (0.16%) and Triton X-100 (1.6% v/v).
Plates were warmed to room temperature and fluorescence intensity was measured with a FLUOstar Omega Microplate fluorescence reader (BMG Labtech). Values were expressed in relative fluorescence units. Binding of SYBR Green is specific for parasite DNA as mature erythrocytes lack DNA and RNA. Fluorescence intensity unit was converted to percentage (%) of growth as follows:
% growth=(culture under drug)−(uninfected RBC)/(culture with no drug)−(uninfected RBC)×100
and the EC50 value was determined.

[6] = biological target: T2, Human NMT1 (HsNMT1); experiment: biochemical
[7] = test system: SU-DHL-10 cells; experiment: Cell cytotoxicity in SU-DHL-10 cell line (CellTiter-Glo); type: cell-based; details: Homo sapiens, SU-DHL10; CellTiter-Glo, 48 h; read-out: SU-DHL-10 EC50
[8] = test system: DOHH-2 tumor cells; experiment: Mouse xenograft, subcutaneous DOHH-2 Lymphoma Model; type: in vivo; details: intraperitoneally 25 mg/kg twice a day for three days then four day no-dosing, cycle repeated three times, compared to vehicle
Description: Assay (i): Mouse Xenograft Protocol
The in vivo efficacy was assess in a subcutaneous xenograft DOHH-2 Lymphoma Model using Female 6-8 week old CB17/SCID Mice. […] The test compound administration started once the mean tumor size reached approximately 100-150 mm3. Compounds were administered either IP (vehicle 58% Na2HPO4 buffer (10 mM) (pH4.5)+40% PEG400+2% DMSO) or orally (vehicle Na2HPO4 buffer (10 mM) (pH 4.5)+0.2% tween 80). Tumor volumes were measured in two dimensions using a caliper, and the volume expressed in mm3 using the formula: V=(L×W×W)/2, where V is tumor volume, L is tumor length (the longest tumor dimension) and W is tumor width (the longest tumor dimension perpendicular to L).
Mice were dosed with Example 2 orally (50 mg/kg) once a day for 9 consecutive days (FIG. 5a), or Example 2 was dosed intraperitonally (25 mg/kg) in a cycle consisting of administration twice a day for three days followed by a four day no-dosing period (FIG. 5b). The cycle was repeated three times.
Mice were dosed with Example 129 intraperitonally (25 mg/kg) in a cycle consisting of administration twice a day for three days followed by a four day no-dosing period (Figure Sc). The cycle was repeated three times.
The protocol and any amendment(s) or procedures involving the care and use of animals in this study were reviewed and approved by the Institutional Animal Care and Use Committee (IACUC) of CrownBio prior to execution. During the study, the care and use of animals was conducted in accordance with the regulations of the Association for Assessment and Accreditation of Laboratory Animal Care (AAALAC).

[9] = test system: Shep-ER-N-Myc cell line; experiment: CellTiter-Blue assay, Shep-ER-N-Myc with or without MYCN induction; type: cell-based, human; details: 72 hours
From the text: (§1) Assay (d): CellTiter-Blue® Assay
(§2) Shep-ER-N-Myc cell line (cell type: human neuroblastoma) was sourced from Linda Valentijn, and firstly reported in Valentijn et. al., Cancer Res, 2005, 65(8), 3136-3145. SKNAS-ER-N-Myc cell line (cell type: human neuroblastoma) was sourced from Michael D. Hogarty, and firstly reported in Ushmorov et al., Oncogene, 2008, 27(24), 3424-3434. P-493-6 cell line was sourced from Chi Van Dang, and firstly reported in Pajic et. al., Int J Cancer, 2000, 87(6), 787-793. P-493-6 cell line is a non-transformed B cell line that can be genetically engineered to have either “low” levels of c-Myc, “medium” levels of c-Myc or “high” levels of c-Myc. The terms “low”, “medium” and “high” are descriptors commonly used in the art and will be readily understood to mean: • i) “low” levels of c-Myc—a level of MYC expression which represents non-proliferating normal cells (i.e. a level of MYC expression not sufficient to cause the cycling of the cells); • ii) “medium” levels of c-Myc—a level of MYC expression which represents normal proliferating cells; and • iii) “high” levels of c-Myc—a level of MYC expression which represents enforced/deregulated expression of c-Myc, typically observed in cancerous cells. […]
For Shep cells, the experiment was performed in a 96 well plate and in technical quadruplicate. […] The fluorescence was measured at 570 nm using an EnVision™ plate reader. […]

[10] = test system: SKNAS-ER-N-Myc cell line; experiment: CellTiter-Blue assay, SKNAS-ER-N-Myc with or without MYCN induction; type: cell-based, human
From the text: as §1, §2
For SKNAS cells, the experiment was performed in a 48 well plate and in technical triplicate. […] The fluorescence was measured at 570 nm using an EnVision™ plate reader. […]

[11] = test system: P-493-6 cell line; experiment: CellTiter-Blue assay, P-493-6 with low, medium or high c-Myc; type: cell-based, human; details: 72 hours, different expression levels of c-Myc induced
From the text: as §1, §2

[12] = test system: P. falciparum Pf3D7^0087/N9; experiment: Mouse malaria model, NODscidIL2Rγnull mice engrafted with human erythrocytes
From the text: Assay (h): Mouse Malaria Model Protocol
The goal of this study was to evaluate the efficacy of compounds of the invention against P. falciparum Pf3D7^0087/N9 in NODscidIL2Rγ^null mice engrafted with human erythrocytes.
Mice were euthanized on day 7.

T1 sequence (A5K1A2 1-410): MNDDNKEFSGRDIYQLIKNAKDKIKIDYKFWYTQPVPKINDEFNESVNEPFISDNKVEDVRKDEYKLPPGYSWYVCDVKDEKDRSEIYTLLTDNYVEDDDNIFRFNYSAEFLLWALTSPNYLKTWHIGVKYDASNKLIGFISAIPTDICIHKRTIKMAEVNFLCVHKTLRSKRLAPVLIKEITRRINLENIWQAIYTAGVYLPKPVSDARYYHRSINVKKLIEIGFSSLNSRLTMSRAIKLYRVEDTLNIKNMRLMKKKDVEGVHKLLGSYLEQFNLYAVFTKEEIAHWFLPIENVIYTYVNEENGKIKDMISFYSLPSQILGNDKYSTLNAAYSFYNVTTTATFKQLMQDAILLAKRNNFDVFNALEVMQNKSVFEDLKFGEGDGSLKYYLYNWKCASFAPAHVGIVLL

SMILES: Cc1cnc(CNC(=O)C2CN(c3nc(NCCN(C)C)ncc3Cl)C2)cn1 [Comparative Example 1, reference compound]
- IC50 [1]: 8400 nM
- IC50 [2]: 46000 nM

SMILES: CN(C)CCNc1ncc(Cl)c(N2CC(C(=O)NCc3ccc(F)cc3F)C2)n1 [Comparative Example 2]
- IC50 [1]: 2000 nM

SMILES: C[C@@H]1CN(c2ncc(F)c(N3CC(C(=O)N(C)C(C)(C)c4cnc5ccccn45)C3)n2)CCN1C [Example 102, 1-{2-[(3R)-3,4-dimethylpiperazin-1-yl]-5-fluoropyrimidin-4-yl}-N-(2-{imidazo[1,2-a]pyridin-3-yl}propan-2-yl)-N-methylazetidine-3-carboxamide]
- IC50 [3]: 24 nM
- half-life at 1 µM [4]: 14.5 min
- IC50 [2]: 72 nM
- EC50 [5]: > 1000 nM

SMILES: C[C@H]1CNCCN1c1ncc(Cl)c(N2CC(C(=O)NC(C)(C)c3cnc4ccccn34)C2)n1 [Example 129, (S)-1-(5-chloro-2-(2-methylpiperazin-1-yl)pyrimidin-4-yl)-N-(2-(imidazo[1,2-a]pyridin-3-yl)propan-2-yl)azetidine-3-carboxamide]
- IC50 [6]: 2 nM
- EC50 [7]: 6 nM
- tumour volume [8]: significant decrease in tumour volume

SMILES: C[C@H]1CN(C)CCN1c1ncc(Cl)c(N2CC(C(=O)NC(C)(C)c3cnc4ccccn34)C2)n1 [Example Compound 2]
- metabolic viability of the Shep-ER-N-MYC cell line [9]: clear loss in metabolic viability when the cells have induction of MYCN
- metabolic viability of the SKNAS-ER-N-MYC cell line [10]: clear loss in metabolic viability when the cells have induction of MYCN

SMILES: C[C@@H]1CN(c2ncc(Cl)c(N3CC(C(=O)NC(C)(C)c4cnc5ccccn45)C3)n2)CCN1C [Example Compound 3]
- metabolic viability of the Shep-ER-N-MYC cell line [9]: clear loss in metabolic viability when the cells have induction of MYCN
- metabolic viability of the P-493-6 cell line [11]: clear MYC-dependent loss in metabolic viability
- metabolic viability of the SKNAS-ER-N-MYC cell line [10]: clear loss in metabolic viability when the cells have induction of MYCN
- average parasitemia values ([12]; 3 mg/kg po per day on day 3, 4, 5 and 6 post-infection, day 0 post infection): 0.01%
- average parasitemia values ([12]; 3 mg/kg po per day on day 3, 4, 5 and 6 post-infection, day 3 post infection): 1.49%
- average parasitemia values ([12]; 3 mg/kg po per day on day 3, 4, 5 and 6 post-infection, day 4 post infection): 4.77%
- average parasitemia values ([12]; 3 mg/kg po per day on day 3, 4, 5 and 6 post-infection, day 5 post infection): 6.73%
- average parasitemia values ([12]; 3 mg/kg po per day on day 3, 4, 5 and 6 post-infection, day 6 post infection): 10.66%
- average parasitemia values ([12]; 3 mg/kg po per day on day 3, 4, 5 and 6 post-infection, day 7 post infection): 11.25%
- average parasitemia values ([12]; 10 mg/kg po per day on day 3, 4, 5 and 6 post-infection, day 0 post infection): 0.01%
- average parasitemia values ([12]; 10 mg/kg po per day on day 3, 4, 5 and 6 post-infection, day 3 post infection): 1.37%
- average parasitemia values ([12]; 10 mg/kg po per day on day 3, 4, 5 and 6 post-infection, day 4 post infection): 2.40%
- average parasitemia values ([12]; 10 mg/kg po per day on day 3, 4, 5 and 6 post-infection, day 5 post infection): 4.21%
- average parasitemia values ([12]; 10 mg/kg po per day on day 3, 4, 5 and 6 post-infection, day 6 post infection): 6.09%
- average parasitemia values ([12]; 10 mg/kg po per day on day 3, 4, 5 and 6 post-infection, day 7 post infection): 7.35%
- average parasitemia values ([12]; 30 mg/kg po per day on day 3, 4, 5 and 6 post-infection, day 0 post infection): 0.01%
- average parasitemia values ([12]; 30 mg/kg po per day on day 3, 4, 5 and 6 post-infection, day 3 post infection): 0.60%
- average parasitemia values ([12]; 30 mg/kg po per day on day 3, 4, 5 and 6 post-infection, day 4 post infection): 0.18%
- average parasitemia values ([12]; 30 mg/kg po per day on day 3, 4, 5 and 6 post-infection, day 5 post infection): 0.02%
- average parasitemia values ([12]; 30 mg/kg po per day on day 3, 4, 5 and 6 post-infection, day 6 post infection): 0.01%
- average parasitemia values ([12]; 30 mg/kg po per day on day 3, 4, 5 and 6 post-infection, day 7 post infection): 0.00* %

SMILES: C[C@H]1CN(C)CCN1c1ncc(Cl)c(N2CC(C(=O)NC(C)(C)c3cnc4ccccn34)C2)n1 [Example compound 2]
- metabolic viability of the P-493-6 cell line [11]: clear MYC-dependent loss in metabolic viability
